In data set [1] the target is T1, rSmLDH (SmLDH1, lactate dehydrogenase) (Spirometra erinaceieuropaei, UniProt E3SW74).
T1 construct: gene LDH; recombinant SmLDH1 (GenBank ADK62519.1, 338 aa), pQE-80L, E. coli BL21
T1 sequence (E3SW74 1-338): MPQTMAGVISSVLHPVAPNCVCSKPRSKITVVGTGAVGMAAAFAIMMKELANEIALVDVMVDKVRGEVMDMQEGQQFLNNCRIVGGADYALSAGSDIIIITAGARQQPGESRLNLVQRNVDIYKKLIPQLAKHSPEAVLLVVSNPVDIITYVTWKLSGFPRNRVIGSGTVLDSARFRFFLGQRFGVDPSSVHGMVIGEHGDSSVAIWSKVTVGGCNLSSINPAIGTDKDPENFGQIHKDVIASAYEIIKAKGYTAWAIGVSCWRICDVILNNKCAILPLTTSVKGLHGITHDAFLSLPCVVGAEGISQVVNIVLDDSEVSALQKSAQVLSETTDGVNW
The experiment in a line: LDH activity at […] nm, Lineweaver-Burk Ki (lactate oxidation; reduction Ki […]). The class given is biochemical.

Data set [2] has as its target T1, rSmLDH (SmLDH1, lactate dehydrogenase). The experiment in a line: LDH activity at […] nm, Lineweaver-Burk Ki (lactate oxidation; reduction Ki […], IC50 […]). The class given is biochemical.
The target is the same in data set [3]. The data set can be described thus: LDH activity at […] nm, Lineweaver-Burk Ki (lactate oxidation; reduction Ki […]). Format: biochemical. This is another data set of the same source.
Data set [4] has the same target. The experiment in a line: LDH activity at […] nm, Lineweaver-Burk Ki (pyruvate reduction; oxidation Ki […]). Format: biochemical.
Substrate in data set [5]: CC(=O)C(=O)O
The data set can be described thus: enzyme kinetics, Km by Lineweaver-Burk plot. Format: biochemical, Spirometra erinaceieuropaei. The conditions noted are these: NADH key catalytic sites […] R, […] D and […] H (model).

Substrate in data set [6]: CC(O)C(=O)O
The data set can be described thus: enzyme kinetics, Km by Lineweaver-Burk plot. The class given is biochemical, Spirometra erinaceieuropaei. The conditions noted are these: NAD+.

Substrate in data set [7]: NC(=O)C1=CN([C@@H]2O[C@H](COP(=O)(O)OP(=O)(O)OC[C@H]3O[C@@H](n4cnc5c(N)ncnc54)[C@H](O)[C@@H]3O)[C@@H](O)[C@H]2O)C=CC1
The experiment in a line: enzyme kinetics, Km by Lineweaver-Burk plot. The class given is biochemical, Spirometra erinaceieuropaei. The conditions noted are these: varied: cofactor.

Substrate in data set [8]: NC(=O)c1ccc[n+]([C@@H]2O[C@H](COP(=O)([O-])OP(=O)(O)OC[C@H]3O[C@@H](n4cnc5c(N)ncnc54)[C@H](O)[C@@H]3O)[C@@H](O)[C@H]2O)c1
The data set can be described thus: enzyme kinetics, Km by Lineweaver-Burk plot. Format: biochemical, Spirometra erinaceieuropaei. The conditions noted are these: varied: cofactor.

`O=C(O)c1cccnc1` [Niacin, Nicotinic Acid] returned a Ki in data set [1] of 2090 µM.

For `Cc1cc2c(C(C)C)c(O)c(O)c(C=O)c2c(O)c1-c1c(C)cc2c(C(C)C)c(O)c(O)c(C=O)c2c1O` [Gsp, Gossypol], the Ki in data set [2] is 41.7 µM.

In turn, `O=C(O)C(=O)O` [Oxalate] displayed a Ki in data set [3] of 47.1 µM.

In turn, `NC(=S)c1cccnc1` [Thio, Thionicotinamide] registered a Ki in data set [4] of 89.4 µM.

B1: rSmLDH (SmLDH1, lactate dehydrogenase) (Spirometra erinaceieuropaei) (protein)
chain: T1 sequence (E3SW74 1-338)
notes: recombinant SmLDH1 (GenBank ADK62519.1, 338 aa), pQE-80L, E. coli BL21
For B1, the Km in data set [5] worked out at 4430 µM; in data set [6], 75190 µM; in data set [7] it was 490 µM; in data set [8], 480 µM.

The term Ki denotes a measure of affinity in units of concentration, obtained from inhibition or displacement. By Km is commonly meant the concentration of substrate that gives half-maximal velocity.

(Values after PMC10705530, “Lactate Dehydrogenase Gene Family in Spirometra mansoni (Cestoda: Diphyllobothriidea)—Phylogenetic Patterns and Molecular Characteristics” (Animals : an Open Access Journal from MDPI, 2023).)
